Source: patent publication US12122778B2, “Activating pyruvate kinase R” (Novo Nordisk Health Care AG, priority 2018, dated 2024)
Like-named read-outs stand apart in the source and are kept apart here.

What was measured:
PKR(R510Q) = PKR(R510Q) (Homo sapiens, UniProt P30613, R510Q); assay: Luminescence Biochemical Assay (Kinase Glo Plus), PKR R510Q mutant; conditions: without FBP; for activation at 1.54 µM: 1.54 μM compound, read-out: AC50 LUM KGP woFBP % Fold@1.54 μM mean; for Emax: read-out: AC50 LUM KGP woFBP MAX % FOLD mean
PKR(G332S) = PKR(G332S) (Homo sapiens, UniProt P30613, G332S); assay: Luminescence Biochemical Assay (Kinase Glo Plus), PKR G332S mutant; conditions: with FBP; for activation at 1.54 µM: 1.54 μM compound, read-out: AC50 LUM KGP FBP % Fold@1.54 μM mean; for Emax: read-out: AC50 LUM KGP FBP MAX % FOLD mean
Protocol: In some embodiments, a PKR Activating Compound can have: (1) an AC50 value of less than 0.1 μM (e.g., compounds with AC50 values of “+++” in Table 13), 0.1-1.0 μM (e.g., compounds with AC50 values of “++” in Table 13), or 1.01-40 μM (e.g., compounds with AC50 values of “+” in Table 13); (2) a MAX % Fold of 75%-250%, 250-500%, or 75%-500%; and/or (3) a % Fold@1.54 μM of 75%-250%, 250-500%, or 75%-500%. In some embodiments, a PKR Activating Compound has (1) an AC50 value of less than 1.0 μM; (2) a MAX % Fold of 75%-500%; and/or (3) a % Fold@1.54 μM of 75%-500%.
The phosphorylation of Adenosine-5′-diphosphate (ADP) by various mutants of PKR was determined by the Kinase Glo Plus Assay (Promega) in the presence or absence of FBP [D-Fructose-1,6-diphosphate; BOC Sciences, CAS: 81028-91-3] as follows. Unless otherwise indicated, all reagents were purchased from Sigma-Aldrich. All reagents were prepared in buffer containing 50 mM Tris-HCl, 100 mM KCl, 5 mM MgCl2, and 0.01% Triton X100, 0.03% BSA, and 1 mM DTT. Enzyme and PEP [Phospho(enol) pyruvic acid] were added at 2× to all wells of an assay-ready plate containing serial dilutions of test compounds or DMSO vehicle. Final enzyme concentrations for PKR(wt), PKR(R510Q), and PKR(G332S) were 0.8 nM, 0.8 nM, and 10 nM respectively. Final PEP concentration was 100 μM. The Enzyme/PEP mixture was incubated with compounds for 30 minutes at RT before the assay was initiated with the addition of 2×ADP [Adenosine-5′-diphosphate] and KinaseGloPlus. Final concentration of ADP was 100 μM. […] For assays containing FBP, that reagent is added at 30 μM upon reaction initiation. Reactions were allowed to progress for 45 minutes at RT until luminescence was recorded by the BMG PHERAstar FS Multilabel Reader. All compounds were tested in triplicate at concentrations ranging from 42.5 μM to 2.2 nM in 0.83% DMSO.
Luminescence values were converted to % Fold increase by normalizing to the average of the DMSO control and multiplying by 100. Max, min, slope and AC50 were determined by the standard four parameter fit algorithm of ActivityBase XE Runner. Compounds were evaluated with three parameters—AC50, MAX % Fold, and % Fold@1.54 μM (FIG. 1). The AC50 value for a compound is the concentration (μM) corresponding to the midway between the maximum and minimum values of the four parameter logistic curve fit (i.e., at which the % fold increase along the four parameter logistic curve fit is halfway between MAX % Fold and MIN % Fold (% Fold Midpoint)), MAX % Fold is the highest fold increase observed at any concentration of compound, and % Fold@1.54 μM is the fold increase at a compound concentration of 1.54 μM. The parameter % Fold@1.54 μM was selected to capture elements of both the AC50 and MAX % Fold and to provide a ranking based on both potency and effect. The compound concentration of 1.54 μM was chosen as one that can optimally differentiate the set of compounds based on the range of activities observed.
As set forth in Table 13 below, AC50 values (columns A, D, G) are defined as follows: ≤0.1 μM (+++); >0.1 μM and ≤1.0 μM (++); >1.0 μM and ≤40 μM (+); >40 μM (0). Max % FOLD values (columns B, E, H) are defined as follows: ≤75% (+); >75% and ≤250% (++); >250% and ≤500% (+++). % Fold@1.54 μM values (columns C, F, J) are defined as follows: ≤75% (+); >75% and ≤250% (++); >250% and ≤50000 (+++).

PKR(wt) = PKR(wt) (Homo sapiens, UniProt P30613); assay: Luminescence Biochemical Assay (Kinase Glo Plus), wild type PKR; conditions: without FBP; for activation at 1.54 µM: 1.54 μM compound, read-out: AC50 LUM KGP woFBP % Fold@1.54 μM mean; for AC50: read-out: AC50 LUM KGP woFBP AC50 μM gmean; for Emax: read-out: AC50 LUM KGP woFBP MAX % FOLD mean
[1] = read-out: AC50 LUM KGP woFBP AC50 μM gmean
[2] = read-out: AC50 LUM KGP FBP AC50 μM gmean (column A)

Chain of PKR(G332S) (P30613 whole entry G332S): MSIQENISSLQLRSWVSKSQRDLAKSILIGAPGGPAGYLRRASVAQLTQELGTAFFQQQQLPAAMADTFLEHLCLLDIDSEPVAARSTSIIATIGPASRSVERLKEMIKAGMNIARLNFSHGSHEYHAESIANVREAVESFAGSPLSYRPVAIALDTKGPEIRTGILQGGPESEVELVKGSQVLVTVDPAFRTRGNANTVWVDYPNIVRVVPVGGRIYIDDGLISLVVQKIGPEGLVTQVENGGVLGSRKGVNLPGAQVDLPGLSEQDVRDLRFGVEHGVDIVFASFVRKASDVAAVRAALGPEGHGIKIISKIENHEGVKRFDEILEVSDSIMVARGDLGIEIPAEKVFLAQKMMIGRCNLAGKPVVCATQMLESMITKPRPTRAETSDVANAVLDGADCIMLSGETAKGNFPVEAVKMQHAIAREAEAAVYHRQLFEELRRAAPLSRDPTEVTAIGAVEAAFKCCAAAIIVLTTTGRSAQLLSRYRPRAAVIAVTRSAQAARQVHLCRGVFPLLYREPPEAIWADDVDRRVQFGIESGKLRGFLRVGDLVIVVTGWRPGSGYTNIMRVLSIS
Chain of PKR(R510Q) (P30613 whole entry R510Q): as the sequence (P30613 whole entry G332S) above, with S332G, R510Q counted along it
Chain of PKR(wt) (P30613 whole entry): as the sequence (P30613 whole entry G332S) above, with S332G counted along it

SMILES	activation at 1.54 µM (PKR(R510Q))	AC50 (PKR(R510Q); [1])	Emax (PKR(R510Q))	activation at 1.54 µM (PKR(G332S))	AC50 (PKR(G332S); [2])	Emax (PKR(G332S))	activation at 1.54 µM (PKR(wt))	AC50 (PKR(wt))	Emax (PKR(wt))	AC50 (PKR(R510Q); gmean, read-out: D - AC50 LUM KGP woFBP AC50 μM gmean)	AC50 (PKR(G332S); gmean, read-out: A - AC50 LUM KGP FBP AC50 μM gmean)
O=C([C@@H](O)c1ccccn1)N1CC2=C(C1)CN(S(=O)(=O)c1ccc(OC(F)F)cc1)C2 (single isomer, unassigned) [Example 8-3]	250 to 50000%	0.1 to 1 µM	250 to 500%	75 to 250%	0.1 to 1 µM	75 to 250%	250 to 50000%	0.1 to 1 µM	250 to 500%		
O=C([C@H](O)c1ccc2c(c1)NCCO2)N1CC2=C(C1)CN(S(=O)(=O)c1ccc(OC(F)F)cc1)C2 (single isomer, unassigned) [Example 9-4]	75 to 250%	1 to 40 µM	250 to 500%	75 to 250%	0.1 to 1 µM	75 to 250%	75 to 250%	1 to 40 µM	250 to 500%		
O=C([C@@H](O)c1ccc2c(c1)NCCO2)N1CC2=C(C1)CN(S(=O)(=O)c1ccc(OC(F)F)cc1)C2 (single isomer, unassigned) [Example 9-5]	250 to 50000%	≤ 0.1 µM	250 to 500%	75 to 250%	≤ 0.1 µM	75 to 250%	250 to 50000%	≤ 0.1 µM	250 to 500%		
CN1CCOc2ccc([C@H](O)C(=O)N3CC4=C(C3)CN(S(=O)(=O)c3ccc(OC(F)F)cc3)C4)cc21 (single isomer, unassigned) [Example 10-2]	250 to 50000%	0.1 to 1 µM	250 to 500%	75 to 250%	≤ 0.1 µM	75 to 250%	250 to 50000%	≤ 0.1 µM	250 to 500%		
O=C([C@@H](O)c1ccc2c(c1)CNCC2)N1CC2=C(C1)CN(S(=O)(=O)c1ccc(OC(F)F)cc1)C2 (single isomer, unassigned) [Example 11-1]	250 to 50000%	0.1 to 1 µM	250 to 500%	75 to 250%	1 to 40 µM	75 to 250%	75 to 250%	1 to 40 µM	75 to 250%		
O=C([C@H](O)c1ccc2c(c1)CNCC2)N1CC2=C(C1)CN(S(=O)(=O)c1ccc(OC(F)F)cc1)C2 (single isomer, unassigned) [Example 11-2]	250 to 50000%	≤ 0.1 µM	250 to 500%	75 to 250%	0.1 to 1 µM	75 to 250%	75 to 250%	≤ 0.1 µM	250 to 500%		
COc1cccc(CNC(=O)N2CC3=C(C2)CN(S(=O)(=O)c2ccc4nsnc4c2)C3)c1 [Example 20-25, 5-(2,1,3-Benzothiadiazole-5-sulfonyl)-N-[(3-methoxyphenyl)methyl]-1H,2H,3H,4H,5H,6H-pyrrolo-[3,4-c]pyrrole-2-carboxamide]	75 to 250%	1 to 40 µM	75 to 250%	75 to 250%	0.1 to 1 µM	75 to 250%					
O=C(NCc1ccc(F)cc1)N1CC2=C(C1)CN(S(=O)(=O)c1ccc3nsnc3c1)C2 [Example 20-28, 5-(2,1,3-Benzothiadiazole-5-sulfonyl)-N-[(4-fluorophenyl)methyl]-1H,2H,3H,4H,5H,6H-pyrrolo[3,4-c]pyrrole-2-carboxamide]	75 to 250%	1 to 40 µM	75 to 250%	75 to 250%	1 to 40 µM	75 to 250%					
Cc1cc(CNC(=O)N2CC3=C(C2)CN(S(=O)(=O)c2ccc4ncsc4c2)C3)no1 [Example 21-8, 5-(1,3-Benzothiazole-6-sulfonyl)-N-[(5-methyl-1,2-oxazol-3-yl)methyl]-1H,2H,3H,4H,5H,6H-pyrrolo[3,4-c]pyrrole-2-carboxamide]	250 to 50000%	≤ 0.1 µM	250 to 500%	75 to 250%	≤ 0.1 µM	75 to 250%					
COCCNC(=O)N1CC2=C(C1)CN(S(=O)(=O)c1ccc3c(c1)N(C)CCO3)C2 [Example 21-24]	75 to 250%	0.1 to 1 µM	250 to 500%	75 to 250%	0.1 to 1 µM	75 to 250%					
C[C@@H](C(=O)N1CC2=C(C1)CN(S(=O)(=O)c1c[nH]c3c(Cl)nccc13)C2)c1ccccc1 [Example 25]										1 to 40 µM	1 to 40 µM

Continued, values first:

activation at 1.54 µM (PKR(R510Q))	AC50 (PKR(R510Q); [1])	Emax (PKR(R510Q))	activation at 1.54 µM (PKR(G332S))	AC50 (PKR(G332S); [2])	Emax (PKR(G332S))	activation at 1.54 µM (PKR(wt))	AC50 (PKR(wt))	Emax (PKR(wt))	AC50 (PKR(R510Q); gmean, read-out: D - AC50 LUM KGP woFBP AC50 μM gmean)	AC50 (PKR(G332S); gmean, read-out: A - AC50 LUM KGP FBP AC50 μM gmean)	SMILES
75 to 250%	1 to 40 µM	250 to 500%	75 to 250%	0.1 to 1 µM	75 to 250%	75 to 250%	1 to 40 µM	250 to 500%			CN1CCOc2ccc([C@@H](O)C(=O)N3CC4=C(C3)CN(S(=O)(=O)c3ccc(OC(F)F)cc3)C4)cc21 (single isomer, unassigned) [Example 10-1]
75 to 250%	1 to 40 µM	250 to 500%	75 to 250%	1 to 40 µM	75 to 250%						COc1ccccc1CNC(=O)N1CC2=C(C1)CN(S(=O)(=O)c1ccc3nsnc3c1)C2 [Example 20-27, 5-(2,1,3-Benzothiadiazole-5-sulfonyl)-N-[(2-methoxyphenyl)methyl]-1H,2H,3H,4H,5H,6H-pyrrolo[3,4-c]pyrrole-2-carboxamide]
75 to 250%	1 to 40 µM	75 to 250%	75 to 250%	1 to 40 µM	75 to 250%						O=C(NCc1ccc(F)cc1)N1CC2=C(C1)CN(S(=O)(=O)c1cccc3cnccc13)C2 [Example 20-41, N-[(4-fluorophenyl)methyl]-5-(isoquinoline-5-sulfonyl)-1H,2H,3H,4H,5H,6H-pyrrolo[3,4-c]pyrrole-2-carboxamide]
75 to 250%	0.1 to 1 µM	75 to 250%	75 to 250%	1 to 40 µM	75 to 250%						CN1CCOc2ccc(S(=O)(=O)N3CC4=C(CN(C(=O)NCc5ccc(F)cc5)C4)C3)cc21 [Example 21-26, N-[(4-fluorophenyl)methyl]-5-[(4-methyl-3,4-dihydro-2H-1,4-benzoxazin-6-yl)sulfonyl]-1H,2H,3H,4H,5H,6H-pyrrolo[3,4-c]pyrrole-2-carboxamide]
75 to 250%	1 to 40 µM	250 to 500%	75 to 250%	1 to 40 µM	75 to 250%						Cc1cc(CNC(=O)N2CC3=C(C2)CN(S(=O)(=O)c2cccnc2)C3)no1 [Example 21-38, N-[(5-methyl-1,2-oxazol-3-yl)methyl]-5-(pyridine-3-sulfonyl)-1H,2H,3H,4H,5H,6H-pyrrolo[3,4-c]pyrrole-2-carboxamide]
